In PMC12001203, “Binding‐Site Purification of Actives (B‐SPA) Enables Efficient Large‐Scale Progression of Fragment Hits by Combining Multi‐Step Array Synthesis With HT Crystallography” (Angewandte Chemie (International Ed. in English), 2025):

Target: T1, Pleckstrin Homology Domain‐Interacting Protein, second bromodomain (PHIP(2)) (Homo sapiens, UniProt Q8WWQ0)
T1 construct: second bromodomain (PHIP(2))
Experiment: grating-coupled interferometry (waveRAPID) Kd; crystal structure; AlphaScreen IC50
Assay type: binding

Kd: 50 µM
SMILES: O=C(Nc1nc2ccccc2o1)N1CCN(C(=O)c2ccco2)CC1 [PHIP-AM1-20, PHIP‐AM1‐20]
